Measured values: ChEMBL document CHEMBL5465560, “Selectivity Literature for EUbOPEN Chemogenomic Library” (2024)
Each block holds one compound with its values, some of them ahead of it.

Legend:
[1] = biological target: OATP1B1 (SLCO1B1) (Homo sapiens, UniProt Q9Y6L6); experiment: Selectivity interaction (Panel of kinases, GPCRs, ion channels and transporters (enzymatic assay)) EUB0000266bCl SLCO1B1; conditions: not told
[2] = biological target: Tyrosine-protein kinase ABL1 (Homo sapiens, UniProt P00519); experiment: Selectivity interaction (Kinase panel (Invitrogen)) EUB0000639a ABL1; conditions: at 200 nM
[3] = biological target: Mitogen-activated protein kinase kinase kinase 8 (Homo sapiens, UniProt P41279); experiment: Selectivity interaction (Kinase panel (Invitrogen)) EUB0000639a MAP3K8; conditions: at 200 nM
[4] = biological target: Serine/threonine-protein kinase 25 (Homo sapiens) (UniProt O00506); experiment: Selectivity interaction (Kinase panel (Invitrogen)) EUB0000639a STK25; conditions: at 200 nM
[5] = biological target: Casein kinase I isoform delta (Homo sapiens, UniProt P48730); experiment: Selectivity interaction (ProQinase) EUB0000171b CSNK1D
[6] = biological target: T1, Dual specificity mitogen-activated protein kinase kinase 5 (Homo sapiens) (UniProt Q13163); experiment: Selectivity interaction (KinomeScan (DiscoverX)) EUB0000092b MAP2K5; conditions: at 10 µM
T1 sequence (whole entry): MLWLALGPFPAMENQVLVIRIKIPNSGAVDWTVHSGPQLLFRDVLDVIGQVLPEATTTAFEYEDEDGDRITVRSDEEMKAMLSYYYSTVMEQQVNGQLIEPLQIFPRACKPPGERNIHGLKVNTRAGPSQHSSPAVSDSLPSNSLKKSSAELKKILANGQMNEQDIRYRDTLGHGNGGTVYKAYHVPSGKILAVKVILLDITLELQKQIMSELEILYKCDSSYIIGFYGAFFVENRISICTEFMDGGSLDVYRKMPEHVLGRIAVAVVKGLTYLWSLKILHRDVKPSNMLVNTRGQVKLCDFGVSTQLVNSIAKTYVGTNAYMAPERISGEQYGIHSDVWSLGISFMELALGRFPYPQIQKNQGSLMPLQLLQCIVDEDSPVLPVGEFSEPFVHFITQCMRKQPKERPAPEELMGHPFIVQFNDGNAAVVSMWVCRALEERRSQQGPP

[7] = biological target: T2, Mitogen-activated protein kinase kinase kinase 6 (Homo sapiens) (UniProt O95382); experiment: Selectivity interaction (KinomeScan (DiscoverX)) EUB0000092b MAP3K6; conditions: at 10 µM
T2 sequence (whole entry): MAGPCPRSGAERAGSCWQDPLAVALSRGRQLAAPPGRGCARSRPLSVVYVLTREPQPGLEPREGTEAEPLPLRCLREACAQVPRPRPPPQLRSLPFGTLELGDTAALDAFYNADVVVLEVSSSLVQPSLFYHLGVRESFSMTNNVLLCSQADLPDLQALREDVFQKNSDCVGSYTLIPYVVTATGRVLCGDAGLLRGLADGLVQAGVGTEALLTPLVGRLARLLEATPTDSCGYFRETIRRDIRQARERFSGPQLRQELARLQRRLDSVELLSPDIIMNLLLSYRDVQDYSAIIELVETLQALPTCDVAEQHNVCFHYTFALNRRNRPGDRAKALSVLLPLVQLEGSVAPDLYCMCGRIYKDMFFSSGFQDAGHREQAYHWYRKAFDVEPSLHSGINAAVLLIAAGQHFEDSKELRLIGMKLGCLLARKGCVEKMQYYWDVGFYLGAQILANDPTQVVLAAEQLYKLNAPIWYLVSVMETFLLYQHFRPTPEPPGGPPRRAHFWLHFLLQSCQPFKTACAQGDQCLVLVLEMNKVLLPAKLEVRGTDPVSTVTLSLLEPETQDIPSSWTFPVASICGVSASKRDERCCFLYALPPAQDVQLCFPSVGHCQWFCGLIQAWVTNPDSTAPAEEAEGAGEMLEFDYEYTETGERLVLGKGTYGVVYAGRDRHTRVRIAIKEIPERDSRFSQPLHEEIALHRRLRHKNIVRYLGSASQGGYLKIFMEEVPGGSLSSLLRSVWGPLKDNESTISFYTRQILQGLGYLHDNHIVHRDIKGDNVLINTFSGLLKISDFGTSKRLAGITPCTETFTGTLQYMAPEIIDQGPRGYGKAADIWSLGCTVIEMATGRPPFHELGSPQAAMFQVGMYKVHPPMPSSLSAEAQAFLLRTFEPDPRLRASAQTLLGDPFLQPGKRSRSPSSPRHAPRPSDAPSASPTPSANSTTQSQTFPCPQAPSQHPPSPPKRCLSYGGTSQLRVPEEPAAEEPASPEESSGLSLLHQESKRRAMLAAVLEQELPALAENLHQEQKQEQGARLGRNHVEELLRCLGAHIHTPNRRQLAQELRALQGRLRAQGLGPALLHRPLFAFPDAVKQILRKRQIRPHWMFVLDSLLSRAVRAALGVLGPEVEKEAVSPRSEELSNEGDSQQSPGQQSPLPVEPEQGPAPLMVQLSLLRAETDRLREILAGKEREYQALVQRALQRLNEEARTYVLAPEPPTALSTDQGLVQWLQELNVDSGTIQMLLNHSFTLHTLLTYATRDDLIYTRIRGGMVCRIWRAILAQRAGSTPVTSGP

[8] = biological target: Ribosomal protein S6 kinase alpha-5 (Homo sapiens) (UniProt O75582); experiment: Selectivity interaction (KinomeScan (DiscoverX)) EUB0000045b RPS6KA5
[9] = biological target: T3, cAMP-dependent protein kinase catalytic subunit PRKX (Homo sapiens) (UniProt P51817); experiment: Selectivity interaction (KinomeScan (DiscoverX)) EUB0000655a PRKX; conditions: at 10 µM
T3 sequence (whole entry): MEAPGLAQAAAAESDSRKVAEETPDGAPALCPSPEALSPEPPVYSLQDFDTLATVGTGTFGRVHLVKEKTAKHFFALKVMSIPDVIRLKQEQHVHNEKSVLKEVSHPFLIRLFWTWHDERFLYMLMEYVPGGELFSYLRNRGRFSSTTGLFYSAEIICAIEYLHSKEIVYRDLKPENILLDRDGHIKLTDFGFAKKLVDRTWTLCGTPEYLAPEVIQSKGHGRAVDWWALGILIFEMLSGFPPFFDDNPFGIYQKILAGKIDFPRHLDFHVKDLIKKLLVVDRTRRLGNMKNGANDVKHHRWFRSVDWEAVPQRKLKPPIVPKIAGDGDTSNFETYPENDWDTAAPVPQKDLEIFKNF

[10] = biological target: RAC-gamma serine/threonine-protein kinase (Homo sapiens, UniProt Q9Y243); experiment: Selectivity interaction (KinomeScan (DiscoverX)) EUB0001619a AKT3; conditions: at 1 µM
[11] = biological target: Fibroblast growth factor receptor 1 (Homo sapiens, UniProt P11362); experiment: Selectivity interaction (KinomeScan (DiscoverX)) EUB0000666a FGFR1; conditions: at 10 µM
Fibroblast growth factor receptor 1, sequence (P11362 22-822 limits assumed): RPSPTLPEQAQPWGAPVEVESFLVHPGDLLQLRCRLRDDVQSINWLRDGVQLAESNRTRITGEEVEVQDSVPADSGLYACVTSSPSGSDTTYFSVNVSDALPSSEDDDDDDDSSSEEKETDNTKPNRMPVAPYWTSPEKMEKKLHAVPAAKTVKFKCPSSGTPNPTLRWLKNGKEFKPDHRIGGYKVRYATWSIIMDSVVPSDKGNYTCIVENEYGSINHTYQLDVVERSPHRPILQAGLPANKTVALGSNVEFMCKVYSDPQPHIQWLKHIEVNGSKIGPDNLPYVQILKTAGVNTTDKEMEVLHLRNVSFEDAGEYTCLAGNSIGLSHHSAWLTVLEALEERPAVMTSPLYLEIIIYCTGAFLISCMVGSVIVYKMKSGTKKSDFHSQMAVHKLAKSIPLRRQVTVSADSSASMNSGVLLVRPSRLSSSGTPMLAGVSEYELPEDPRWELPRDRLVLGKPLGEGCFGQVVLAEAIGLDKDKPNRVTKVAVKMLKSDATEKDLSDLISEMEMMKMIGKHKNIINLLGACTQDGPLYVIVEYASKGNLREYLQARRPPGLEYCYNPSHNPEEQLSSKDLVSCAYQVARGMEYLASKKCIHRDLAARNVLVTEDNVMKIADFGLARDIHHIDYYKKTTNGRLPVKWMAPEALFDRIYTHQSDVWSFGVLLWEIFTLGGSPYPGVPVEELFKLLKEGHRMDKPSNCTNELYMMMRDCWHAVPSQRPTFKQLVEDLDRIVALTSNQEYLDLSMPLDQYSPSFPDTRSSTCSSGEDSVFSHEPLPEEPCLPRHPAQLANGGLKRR

Ribosomal protein S6 kinase alpha-5 (Homo sapiens), sequence (O75582 whole entry, looked up): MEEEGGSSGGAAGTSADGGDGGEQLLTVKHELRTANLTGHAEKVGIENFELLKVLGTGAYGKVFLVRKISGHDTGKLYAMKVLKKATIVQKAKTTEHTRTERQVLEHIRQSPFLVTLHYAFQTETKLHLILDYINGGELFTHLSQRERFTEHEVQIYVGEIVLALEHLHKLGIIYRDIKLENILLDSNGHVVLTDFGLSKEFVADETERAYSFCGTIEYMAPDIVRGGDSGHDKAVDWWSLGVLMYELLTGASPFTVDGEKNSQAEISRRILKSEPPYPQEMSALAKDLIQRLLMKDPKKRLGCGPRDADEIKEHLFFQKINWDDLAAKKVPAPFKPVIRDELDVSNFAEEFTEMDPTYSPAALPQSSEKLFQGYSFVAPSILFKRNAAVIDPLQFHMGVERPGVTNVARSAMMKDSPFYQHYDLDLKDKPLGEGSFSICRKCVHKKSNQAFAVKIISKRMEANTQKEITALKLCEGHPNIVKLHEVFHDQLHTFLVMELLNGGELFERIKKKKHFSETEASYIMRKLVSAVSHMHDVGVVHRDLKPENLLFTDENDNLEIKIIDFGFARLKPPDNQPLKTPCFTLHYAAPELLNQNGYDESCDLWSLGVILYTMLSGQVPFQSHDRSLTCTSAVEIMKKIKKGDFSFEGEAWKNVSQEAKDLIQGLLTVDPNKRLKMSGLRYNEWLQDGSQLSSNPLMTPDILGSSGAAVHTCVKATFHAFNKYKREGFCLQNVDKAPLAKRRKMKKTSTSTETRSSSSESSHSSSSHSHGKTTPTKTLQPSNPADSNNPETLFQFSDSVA
Casein kinase I isoform delta, sequence (P48730 whole entry, looked up, canonical isoform): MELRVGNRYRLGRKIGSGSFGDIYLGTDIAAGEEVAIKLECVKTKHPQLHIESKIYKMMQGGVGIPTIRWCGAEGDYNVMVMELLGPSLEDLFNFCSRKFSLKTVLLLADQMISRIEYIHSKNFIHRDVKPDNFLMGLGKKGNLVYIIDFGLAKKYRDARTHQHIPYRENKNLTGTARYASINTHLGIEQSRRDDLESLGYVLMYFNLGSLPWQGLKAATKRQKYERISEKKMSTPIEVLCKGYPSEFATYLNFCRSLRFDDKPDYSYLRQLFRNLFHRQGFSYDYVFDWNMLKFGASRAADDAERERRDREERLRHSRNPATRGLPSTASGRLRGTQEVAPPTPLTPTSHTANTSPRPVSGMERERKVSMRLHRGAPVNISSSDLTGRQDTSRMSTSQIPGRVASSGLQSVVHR
Tyrosine-protein kinase ABL1, sequence (P00519 whole entry): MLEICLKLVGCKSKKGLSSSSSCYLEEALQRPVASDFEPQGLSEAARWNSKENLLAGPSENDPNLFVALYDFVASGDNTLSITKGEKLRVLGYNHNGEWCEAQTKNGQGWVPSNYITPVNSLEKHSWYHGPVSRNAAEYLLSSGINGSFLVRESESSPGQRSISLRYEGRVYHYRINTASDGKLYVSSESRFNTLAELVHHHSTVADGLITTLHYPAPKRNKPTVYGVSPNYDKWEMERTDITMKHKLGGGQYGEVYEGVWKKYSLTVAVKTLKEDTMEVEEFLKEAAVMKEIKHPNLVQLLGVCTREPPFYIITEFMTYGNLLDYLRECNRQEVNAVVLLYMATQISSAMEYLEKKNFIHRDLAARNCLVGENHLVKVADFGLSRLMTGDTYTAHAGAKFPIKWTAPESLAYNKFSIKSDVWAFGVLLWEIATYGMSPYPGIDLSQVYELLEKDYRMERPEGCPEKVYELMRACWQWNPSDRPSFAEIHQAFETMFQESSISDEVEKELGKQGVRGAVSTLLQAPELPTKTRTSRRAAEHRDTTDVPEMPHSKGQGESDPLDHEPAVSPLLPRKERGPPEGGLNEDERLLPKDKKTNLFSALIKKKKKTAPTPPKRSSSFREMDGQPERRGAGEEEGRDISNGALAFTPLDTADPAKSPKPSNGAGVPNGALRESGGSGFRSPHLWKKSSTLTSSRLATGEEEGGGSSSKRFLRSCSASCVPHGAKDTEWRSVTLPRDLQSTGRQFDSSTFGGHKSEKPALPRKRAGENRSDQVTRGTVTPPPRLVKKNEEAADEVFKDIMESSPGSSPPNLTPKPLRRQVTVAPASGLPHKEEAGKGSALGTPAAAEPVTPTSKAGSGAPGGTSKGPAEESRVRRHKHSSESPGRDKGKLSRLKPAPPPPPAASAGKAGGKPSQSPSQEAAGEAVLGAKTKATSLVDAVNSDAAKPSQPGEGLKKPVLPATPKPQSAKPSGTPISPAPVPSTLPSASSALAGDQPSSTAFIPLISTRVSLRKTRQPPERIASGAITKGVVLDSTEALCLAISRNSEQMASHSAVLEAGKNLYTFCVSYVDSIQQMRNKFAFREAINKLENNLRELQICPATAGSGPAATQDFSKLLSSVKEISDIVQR
Mitogen-activated protein kinase kinase kinase 8, sequence (P41279 whole entry): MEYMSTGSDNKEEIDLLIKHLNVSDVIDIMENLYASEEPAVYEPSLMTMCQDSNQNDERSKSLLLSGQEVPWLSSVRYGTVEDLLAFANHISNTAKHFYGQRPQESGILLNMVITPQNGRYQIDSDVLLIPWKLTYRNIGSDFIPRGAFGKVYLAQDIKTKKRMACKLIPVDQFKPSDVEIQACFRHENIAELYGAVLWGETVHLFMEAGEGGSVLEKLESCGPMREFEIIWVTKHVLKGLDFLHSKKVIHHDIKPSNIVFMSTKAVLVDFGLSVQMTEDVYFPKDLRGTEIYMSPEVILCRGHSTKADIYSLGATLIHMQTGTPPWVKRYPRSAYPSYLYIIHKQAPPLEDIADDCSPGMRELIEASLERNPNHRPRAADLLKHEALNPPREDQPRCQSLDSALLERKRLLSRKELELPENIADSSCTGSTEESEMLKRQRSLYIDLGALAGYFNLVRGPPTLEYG
Serine/threonine-protein kinase 25 (Homo sapiens), sequence (O00506 whole entry, looked up, canonical isoform): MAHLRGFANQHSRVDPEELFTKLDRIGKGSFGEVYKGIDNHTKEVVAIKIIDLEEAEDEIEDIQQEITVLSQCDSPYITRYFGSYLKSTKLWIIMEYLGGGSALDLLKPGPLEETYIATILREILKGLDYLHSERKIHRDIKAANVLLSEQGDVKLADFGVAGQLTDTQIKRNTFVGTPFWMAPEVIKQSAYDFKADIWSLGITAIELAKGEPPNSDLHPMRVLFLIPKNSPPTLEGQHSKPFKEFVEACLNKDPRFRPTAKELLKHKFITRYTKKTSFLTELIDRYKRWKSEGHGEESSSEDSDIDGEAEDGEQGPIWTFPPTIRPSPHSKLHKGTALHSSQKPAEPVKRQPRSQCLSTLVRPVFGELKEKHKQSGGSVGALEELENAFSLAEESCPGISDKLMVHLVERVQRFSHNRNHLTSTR
OATP1B1 (SLCO1B1), sequence (Q9Y6L6 whole entry): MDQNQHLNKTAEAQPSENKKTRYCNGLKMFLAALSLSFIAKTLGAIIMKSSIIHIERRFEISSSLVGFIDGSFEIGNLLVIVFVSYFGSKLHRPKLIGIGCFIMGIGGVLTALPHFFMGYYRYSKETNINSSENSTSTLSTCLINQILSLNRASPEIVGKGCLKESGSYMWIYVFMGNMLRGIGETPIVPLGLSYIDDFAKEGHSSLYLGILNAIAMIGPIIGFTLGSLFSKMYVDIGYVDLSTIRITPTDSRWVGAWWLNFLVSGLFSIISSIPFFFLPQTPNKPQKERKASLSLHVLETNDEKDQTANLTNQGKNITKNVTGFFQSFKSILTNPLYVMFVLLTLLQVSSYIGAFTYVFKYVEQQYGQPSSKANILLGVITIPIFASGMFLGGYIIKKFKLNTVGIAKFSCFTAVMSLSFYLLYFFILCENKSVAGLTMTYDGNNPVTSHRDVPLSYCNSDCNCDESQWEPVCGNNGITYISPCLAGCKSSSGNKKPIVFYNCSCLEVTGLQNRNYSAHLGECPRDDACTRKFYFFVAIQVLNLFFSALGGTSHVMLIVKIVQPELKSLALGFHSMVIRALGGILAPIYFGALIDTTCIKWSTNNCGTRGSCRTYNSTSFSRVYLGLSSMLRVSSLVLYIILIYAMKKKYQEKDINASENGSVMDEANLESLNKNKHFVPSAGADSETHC

XC50 [1]: > 50.1 µM
Compound: CCn1c(-c2nc3cc(C(=O)N4CCCC(N)C4)ccc3n2C)cc2ccccc21 (stereo not drawn)

% of inhibition [2]: -8% | % of inhibition [3]: 24.9% | % of inhibition [4]: 7.57%
Compound: CC[C@@H]1[C@H](F)C(=O)N[C@@H]1COc1nccc2cc(C(N)=O)c(OC)cc12 [ZIMLOVISERTIB]

% of control ([5]; at 1 µM): 13% | % of control ([5]; at 5 µM): 3%
Compound: C=CC(=O)Nc1cccc(C(=O)Nc2ccc(Nc3cc(-c4[nH]c(SC)nc4C)ccn3)cc2)c1

Compound: CCC(=O)N1CCN(c2ccc(-n3c(=O)ccc4cnc5ccc(-c6cnc7ccccc7c6)cc5c43)cc2C(F)(F)F)CC1
% of control [6]: 100% | % of control [7]: 100%

Compound: C=CC(=O)Nc1cc(-n2c(=O)ccc3cnc4ccc(-c5ccc(NS(C)(=O)=O)cc5)cc4c32)ccc1C
% of control ([8]; at 1 µM): 100% | % of control ([8]; at 10 µM): 100%

Compound: CN(C)CCOc1ccc(-c2nc(-c3ccncc3)c(-c3ccc4c(c3)CC/C4=N\O)[nH]2)cc1
% of control [9]: 94%

Compound: N#Cc1cccc(-c2c[nH]c3ncnc(N4CCOCC4)c23)c1
% of control [10]: 100%

Compound: O=C(NOC[C@H](O)CO)c1ccc(F)c(F)c1Nc1ccc(I)cc1F
% of control [11]: 100%
